The experiment addresses T1, chicken gizzard smooth muscle myosin subfragment-1 chemically crosslinked to cardiac or skeletal actin (Gallus gallus, UniProt P10587).
T1 construct: chicken gizzard smooth muscle myosin subfragment-1; from tissue; host or cells: chicken gizzard
As to the kind of experiment: Smooth muscle myosin ATPase dose response assay (pyruvate kinase/horseradish peroxidase/pyruvate oxidase-coupled, amplex red fluorescence). The class given is biochemical. The following applies: read-out: IC50 Arithmetic Mean. As for the experimental part: In Vitro Model of Dose Dependent Smooth Muscle Myosin ATPase Modulation
Screening assays were performed using a pyruvate kinase and lactate dehydrogenase-coupled ATPase assay containing the following reagents: Potassium PIPES (50 mM), MgCl2 (3 mM), KCl (100 mM), ATP (0.15 mM), DTT (1 mM), BSA (0.1 mg/ml), NADH (0.5 mM), PEP (1.5 mM), pyruvate kinase (4 U/ml), lactate dehydrogenase (8 U/ml), and antifoam (50 ppm) (concentrations expressed are final assay concentrations). The pH was adjusted to 6.80 at 22° C. by addition of potassium hydroxide. Lead optimization assays were performed with a more sensitive pyruvate kinase/horseradish peroxidase/pyruvate oxidase-coupled ATPase assay containing the following reagents: Potassium PIPES (12 mM), MgCl2 (2 mM), KCl (100 mM), ATP (0.15 mM), BSA (0.05 mg/ml), potassium phosphate (2 mM), amplex red (0.1 mM), PEP (0.1 mM), pyruvate kinase (4 U/ml), horseradish peroxidase (0.5 U/ml), pyruvate oxidase (0.5 U/ml), and antifoam (50 ppm) (concentrations expressed are final assay concentrations). The pH was adjusted to 7.00 at 22° C. by addition of potassium hydroxide.
The protein components specific to this assay are chicken gizzard smooth muscle myosin subfragment-1 that has been chemically crosslinked to either cardiac or skeletal actin using an excess of 1-Ethyl-3-[3-dimethylaminopropyl]carbodiimide hydrochloride and N-hydroxysuccinimide. The exact concentration of the crosslinked smooth muscle myosin in the assay is determined empirically, by titration to achieve a desired rate of ATP hydrolysis. The concentration varies between protein preparations due to variations in the fraction of active molecules in each preparation.
Compound dose response assays are performed by first preparing a dilution series of test compound, each with an assay mixture containing potassium PIPES, MgCl2, KCl, ATP, BSA, potassium phosphate, amplex red, PEP, crosslinked smooth muscle actomyosin (subfragment-1), antifoam, and water. The assay is started by adding an equal volume of solution containing potassium Pipes, MgCl2, KCl, BSA, potassium phosphate, pyruvate kinase, horseradish peroxidase, pyruvate oxidase, antifoam, and water. ATP hydrolysis is monitored by measuring the fluorescence of amplex red (excitation at 480 nm, emission at 615 nm). The resulting dose response curve is fit by the 4 parameter equation y=Bottom+((Top-Bottom)/(1+((IC50/X)^Hill))). The IC50 is defined as the concentration at which ATPase activity is midway between the top and bottom of the dose response curve.
T1 sequence (P02607 2-151): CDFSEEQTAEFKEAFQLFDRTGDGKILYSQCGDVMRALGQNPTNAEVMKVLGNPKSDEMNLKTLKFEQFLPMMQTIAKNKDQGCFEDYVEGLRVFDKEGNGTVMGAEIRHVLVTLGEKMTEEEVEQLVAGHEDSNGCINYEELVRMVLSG
T1 sequence (P10587 84-789): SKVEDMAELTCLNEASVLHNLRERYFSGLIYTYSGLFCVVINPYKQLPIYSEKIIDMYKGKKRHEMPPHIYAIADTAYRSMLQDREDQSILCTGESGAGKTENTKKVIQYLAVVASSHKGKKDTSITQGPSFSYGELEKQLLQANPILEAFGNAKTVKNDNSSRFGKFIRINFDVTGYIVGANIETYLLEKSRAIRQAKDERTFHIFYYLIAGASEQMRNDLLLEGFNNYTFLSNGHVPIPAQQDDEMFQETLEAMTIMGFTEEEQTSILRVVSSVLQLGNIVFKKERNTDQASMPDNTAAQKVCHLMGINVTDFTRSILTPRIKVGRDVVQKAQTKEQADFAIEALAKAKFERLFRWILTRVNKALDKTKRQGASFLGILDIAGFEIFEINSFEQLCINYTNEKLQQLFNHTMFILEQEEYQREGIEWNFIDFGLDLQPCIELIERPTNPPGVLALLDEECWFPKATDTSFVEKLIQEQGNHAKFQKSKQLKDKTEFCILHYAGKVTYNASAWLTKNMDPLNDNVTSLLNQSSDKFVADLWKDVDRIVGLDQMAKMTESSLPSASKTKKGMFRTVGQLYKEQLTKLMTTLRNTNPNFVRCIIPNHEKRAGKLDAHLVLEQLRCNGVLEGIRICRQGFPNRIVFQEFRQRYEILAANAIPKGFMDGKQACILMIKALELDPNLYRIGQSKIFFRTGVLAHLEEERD
The IC50 is the point on the concentration scale where inhibition reaches its midpoint. With `N#Cc1ccccc1-c1ccc(C(=O)NCc2cccc(CO)n2)c(NCCc2cccc(F)c2)n1` [(6-(2-cyanophenyl)-2-{[2-(3-fluorophenyl)ethyl]amino}(3-pyridyl))-N-{[6-(hydroxymethyl)(2-pyridyl)]methyl}carboxamide], the IC50 was 37 nM.

`N#Cc1ccccc1-c1ccc(C(=O)NC[C@@H]2CCCN2C(=O)CCN)c(NCCc2cccc(F)c2)n1` [N-{[(2S)-1-(3-aminopropanoyl)pyrrolidin-2-yl]methyl}(6-(2-cyanophenyl)-2-{[2-(3-fluorophenyl)ethyl]amino}(3-pyridyl))carboxamide]: the 50% inhibitory concentration (IC50) turned out to be 1860 nM. For `CN(CCNC(=O)c1ccc(-c2ccccc2C#N)nc1NCCc1cccc(F)c1)S(C)(=O)=O` [(6-(2-cyanophenyl)-2-{[2-(3-fluorophenyl)ethyl]amino}(3-pyridyl))-N-{2-[methyl(methylsulfonyl)amino]ethyl}carboxamide] the value was 1380 nM. The result for `C[N+]1(C)CCC[C@@H]1CNC(=O)c1ccc(-c2ccccc2C#N)nc1NCCc1cccc(F)c1` reads 2050 nM; that for `N#Cc1ccccc1-c1ccc(C(=O)NC[C@H]2CCCN2C(=O)OCCN)c(NCCc2cccc(F)c2)n1` [2-aminoethyl (2R)-2-{[(6-(2-cyanophenyl)-2-{[2-(3-fluorophenyl)ethyl]amino}(3-pyridyl))carbonylamino]methyl}pyrrolidinecarboxylate], 27 nM; that for `O=C(NCc1cccnc1)c1ccc(-c2ccccc2F)nc1NCCc1cccc(F)c1` [(6-(2-fluorophenyl)-2-{[2-(3-fluorophenyl)ethyl]amino}(3-pyridyl))-N-(3-pyridylmethyl)carboxamide], 139 nM.

On to `N#Cc1ccccc1-c1ccc(C(=O)N[C@@H](CCCN)C(N)=O)c(NCCc2cccc(F)c2)n1` [N-((1S)-4-amino-1-carbamoylbutyl)(6-(2-cyanophenyl)-2-{[2-(3-fluorophenyl)ethyl]amino}(3-pyridyl))carboxamide], for which the IC50 is 5400 nM.

As to `NCc1cccc(CNC(=O)c2ccc(-c3cn[nH]c3)nc2NCCc2cccc(F)c2)n1` [N-{[6-(aminomethyl)(2-pyridyl)]methyl}(2-{[2-(3-fluorophenyl)ethyl]amino}-6-pyrazol-4-yl(3-pyridyl))carboxamide], the IC50 turned out to be 121 nM.

Turning to `COCc1ccccc1-c1ccc(C(=O)NCc2cccnc2)c(NCCc2ccccn2)n1` [{6-[2-(methoxymethyl)phenyl]-2-[(2-(2-pyridyl)ethyl)amino](3-pyridyl)}-N-(3-pyridylmethyl)carboxamide], the IC50 was found to be 84500 nM. Consider `C[C@H](CNC(=O)c1cc(F)c(-c2cnn(C)c2)nc1NCCc1cccc(F)c1)NC(=O)C(C)(C)N`, for which the IC50 is 285 nM. For `O=C(NCc1cccnc1)c1ccc(-c2cccs2)nc1NCCc1ccccn1` [{2-[(2-(2-pyridyl)ethyl)amino]-6-(2-thienyl)(3-pyridyl)}-N-(3-pyridylmethyl)carboxamide] the value was 797 nM; for `Cn1cc(-c2nc(NCCc3cccc(F)c3)c(C(=O)NC[C@H]3CCCN3C(=O)C(O)CO)cc2F)cn1` (stereo partly drawn) [N-{[(2R)-1-(2,3-dihydroxypropanoyl)pyrrolidin-2-yl]methyl}(5-fluoro-2-{[2-(3-fluorophenyl)ethyl]amino}-6-(1-methylpyrazol-4-yl)(3-pyridyl))carboxamide], 143 nM. The result for `CC(C)(C)OC(=O)NCc1cccc(CNC(=O)c2ccc(-c3ccccc3C#N)nc2NCCc2cccc(F)c2)n1` reads 1190 nM; that for `N#Cc1ccccc1-c1ccc(C(=O)NCCN2CCC[C@H](N)C2=O)c(NCCc2cccc(F)c2)n1` (stereo in doubt) [N-[2-(3-amino-2-oxopiperidyl)ethyl](6-(2-cyanophenyl)-2-{[2-(3-fluorophenyl)ethyl]amino}(3-pyridyl))carboxamide], 2950 nM. For `N#Cc1ccccc1-c1ccc(C(=O)NC[C@H]2CCCC(=O)N2CCCN)c(NCCc2cccc(F)c2)n1` [N-{[(2R)-1-(3-aminopropyl)-6-oxo(2-piperidyl)]methyl}(6-(2-cyanophenyl)-2-{[2-(3-fluorophenyl)ethyl]amino}(3-pyridyl))carboxamide] the value was 26 nM; for `O=C(NCc1cccnc1)c1cc(CO)c(-c2ccccc2)nc1NCCc1cccc(F)c1` [(2-{[2-(3-fluorophenyl)ethyl]amino}-5-(hydroxymethyl)-6-phenyl(3-pyridyl))-N-(3-pyridylmethyl)carboxamide], 625 nM; for `N#Cc1ccccc1-c1ccc(C(=O)NCc2ccccn2)c(NCCc2cccc(F)c2)n1` [(6-(2-cyanophenyl)-2-{[2-(3-fluorophenyl)ethyl]amino}(3-pyridyl))-N-(2-pyridylmethyl)carboxamide], 29 nM. With `N#Cc1ccccc1-c1ccc(C(=O)NCC2CCN(C(=O)CCCN)CC2)c(NCCc2cccc(F)c2)n1` [N-{[1-(4-aminobutanoyl)(4-piperidyl)]methyl}(6-(2-cyanophenyl)-2-{[2-(3-fluorophenyl)ethyl]amino}(3-pyridyl))carboxamide], the concentration for half-maximal inhibition (IC50) stood at 6010 nM. For `CC(C)(C)OC(=O)NCCCN1C(=O)CCC[C@@H]1CNC(=O)c1ccc(-c2ccccc2C#N)nc1NCCc1cccc(F)c1` [N-[((2R)-1-{3-[(tert-butoxy)carbonylamino]propyl}-6-oxo(2-piperidyl))methyl](6-(2-cyanophenyl)-2-{[2-(3-fluorophenyl)ethyl]amino}(3-pyridyl))carboxamide] the value was 392 nM; for `N#Cc1ccccc1-c1ccc(C(=O)NC[C@H]2CCCN(C(=O)CCN)C2)c(NCCc2cccc(F)c2)n1` [N-{[(3R)-1-(3-aminopropanoyl)(3-piperidyl)]methyl}(6-(2-cyanophenyl)-2-{[2-(3-fluorophenyl)ethyl]amino}(3-pyridyl))carboxamide], 173 nM. For `CC(C)(C)OC(=O)NCc1ncccc1CNC(=O)c1cc(F)c(-c2ccccc2C#N)nc1NCCc1cccc(F)c1` [N-[(2-{[(tert-butoxy)carbonylamino]methyl}(3-pyridyl))methyl](6-(2-cyanophenyl)-5-fluoro-2-{[2-(3-fluorophenyl)ethyl]amino}(3-pyridyl))carboxamide] the value was 5360 nM; for `O=C(NCCc1ccccn1)c1ccc(-c2ccccc2)nc1NCCc1ccccc1` [{6-phenyl-2-[(2-phenylethyl)amino](3-pyridyl)}-N-(2-(2-pyridyl)ethyl)carboxamide], 5250 nM; for `O=C(NCc1cccnc1)c1ccc(-c2ccccc2)nc1NCCc1ccc(Cl)cc1` [(2-{[2-(4-chlorophenyl)ethyl]amino}-6-phenyl(3-pyridyl))-N-(3-pyridylmethyl)carboxamide], 6680 nM.

On to `NCCCn1nccc1CNC(=O)c1ccc(-c2cn[nH]c2)nc1NCCc1cccc(F)c1` [N-{[1-(3-aminopropyl)pyrazol-5-yl]methyl}(2-{[2-(3-fluorophenyl)ethyl]amino}-6-pyrazol-4-yl(3-pyridyl))carboxamide], for which the IC50 amounted to 95 nM. The result for `C[C@@H](CNC(=O)CO)CNC(=O)c1cc(F)c(-c2cnn(C)c2)nc1NCCc1cccc(F)c1` [N-{(2R)-3-[(5-fluoro-2-{[2-(3-fluorophenyl)ethyl]amino}-6-(1-methylpyrazol-4-yl)(3-pyridyl))carbonylamino]-2-methylpropyl}-2-hydroxyacetamide] reads 105 nM; that for `Cn1ccc(CNC(=O)c2ccc(-c3ccccc3C#N)nc2NCCc2cccc(F)c2)n1` [(6-(2-cyanophenyl)-2-{[2-(3-fluorophenyl)ethyl]amino}(3-pyridyl))-N-[(1-methylpyrazol-3-yl)methyl]carboxamide], 32 nM; that for `O=C(NCc1cccnc1)c1ccc(-c2ccsc2)nc1NCCc1cccc(F)c1` [(2-{[2-(3-fluorophenyl)ethyl]amino}-6-(3-thienyl)(3-pyridyl))-N-(3-pyridylmethyl)carboxamide], 48 nM. The result for `CN(C)C(=O)[C@@H](N)CNC(=O)c1ccc(-c2ccccc2C#N)nc1NCCc1cccc(F)c1` [(2S)-2-amino-3-[(6-(2-cyanophenyl)-2-{[2-(3-fluorophenyl)ethyl]amino}(3-pyridyl))carbonylamino]-N,N-dimethylpropanamide] reads 8180 nM; that for `CNC(=O)N1CCC[C@@H]1CNC(=O)c1ccc(-c2ccccc2C#N)nc1NCCc1cccc(F)c1` [N-{[(2R)-1-(N-methylcarbamoyl)pyrrolidin-2-yl]methyl}(6-(2-cyanophenyl)-2-{[2-(3-fluorophenyl)ethyl]amino}(3-pyridyl))carboxamide], 307 nM.

Values taken from patent publication US7932270B2 (Cytokinetics, Inc., priority 2006, dated 2011).
